Reference: US9445589B2, “Active compounds combinations comprising a lipo-chitooligosaccharide derivative and a nematicide, insecticidal or fungicidal compound” (Bayer CropScience AG, priority 2012, dated 2016)

Tested on: Maize seedlings
Assay: Maize seedlings shoot weight (seed treatment, greenhouse)
Format: in vivo
Procedure: Maize seeds are grown in loamy sand in the greenhouse at 20 C and 70% humidity for 11 days. After 11 days seedlings were cut off above the soil and fresh weight was determined. Compounds are applied at the following concentration: Poncho™ (pesticidal product comprising clothianidin as active ingredient): 250 μg of clothianidin/kernel; VOTiVO™ (product based on the natural soil bacteria Bacillus firmus (strain I-1582): 50 μg/kernel; Compound A of formula (I): 0.01 μg/kernel. The test is evaluated 11 days after the application. 100% means shoot weight which corresponds to that of the untreated control. Efficacy means in this case the additional % of shoot weight in comparison to that of the untreated control.

CCCCCC/C=C\CCCOc1cccc(C(=O)N[C@@H]2C(O[C@H]3C(O)C(NC(C)=O)C(OC4C(CO)O[C@@H](O[C@H]5C(O)C(NC(C)=O)C(OC6C(CO)OC(O)[C@@H](NC(C)=O)[C@@H]6O)O[C@H]5CO)[C@@H](NC(C)=O)[C@@H]4O)O[C@H]3CO)OC(CO)[C@@H](O)[C@@H]2O)c1 (stereo partly drawn) [Compound A of formula (I)]
Efficacy % (additional % of shoot weight in comparison to untreated control, 11 days after application): 7%
Seedling shoot weight (g) (Average on 3 replicates) (fresh weight after 11 days in loamy sand, greenhouse 20 C, 70% humidity, clothianidin 250 μg/kernel, VOTiVO 50 μg/kernel, Compound A 0.01 μg/kernel): 15.3 g
Found % (shoot weight relative to untreated control (100%), 11 days after application, same application rates): 107%
